Results taken from article PMC3946003, “Protein kinase inhibitor SU6668 attenuates positive regulation of Gli proteins in cancer and multipotent progenitor cells” (Biochimica et Biophysica Acta, 2014).
pKi: −log10 of the molar value.

Legend:
[1] = target: T1, ULK3 (Homo sapiens, UniProt Q6PHR2); assay: in vitro kinase assay (ULK3 autophosphorylation, […] ATP); Ki calculated from IC50 […]; assay type: biochemical; set-up: bacterially expressed and purified His-tagged ULK3 protein
T1 sequence (Q6PHR2 1-472): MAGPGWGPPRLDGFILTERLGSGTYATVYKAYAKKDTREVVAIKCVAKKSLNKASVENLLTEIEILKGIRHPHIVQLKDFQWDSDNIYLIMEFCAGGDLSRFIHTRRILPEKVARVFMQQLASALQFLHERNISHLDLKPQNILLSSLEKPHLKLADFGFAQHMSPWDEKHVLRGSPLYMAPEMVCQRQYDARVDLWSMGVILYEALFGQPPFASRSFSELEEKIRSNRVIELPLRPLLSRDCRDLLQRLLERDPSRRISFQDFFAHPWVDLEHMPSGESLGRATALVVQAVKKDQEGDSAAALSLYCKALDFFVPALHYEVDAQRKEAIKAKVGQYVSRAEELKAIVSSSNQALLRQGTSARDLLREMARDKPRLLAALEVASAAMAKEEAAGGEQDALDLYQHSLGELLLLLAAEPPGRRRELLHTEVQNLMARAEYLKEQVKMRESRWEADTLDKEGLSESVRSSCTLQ

[2] = target: T1, ULK3

SMILES	pKi [1]	Km [2] [µM]
Cc1[nH]c(/C=C2\C(=O)Nc3ccccc32)c(C)c1CCC(=O)O [SU6668, (Z)-5-[(1,2-dihydro-2-oxo-3H-indol-3-ylidene)methyl]-2,4-dimethyl-1H-pyrrole-3-propanoic acid]	~6.70	
Nc1ncnc2c1ncn2[C@@H]1O[C@H](COP(=O)(O)OP(=O)(O)OP(=O)(O)O)[C@@H](O)[C@H]1O [ATP]		3.2
